Consider 2 molecules from ChEMBL document CHEMBL3739342, “Varitatin A, a Highly Modified Fatty Acid Amide from Penicillium variabile Cultured with a DNA Methyltransferase Inhibitor” (J Nat Prod, 2015).

Experiment [1] can be described thus: Cytotoxicity against human HCT116 cells by SRB assay. The class given is functional, cell-based. Particulars: HCT-116. On the technique in general: The SRB assay estimates cell density from bound dye.
For a further experiment, the species on record is Homo sapiens. The experiment in a line: Inhibition of PTK (unknown origin) at 1 uM by ELISA. On the technique in general: ELISA stands for enzyme-linked immunosorbent assay.
The target of experiment [2] is Platelet-derived growth factor receptor beta (Homo sapiens) (UniProt P09619). The experiment can be described thus: Inhibition of PDGFR-beta (unknown origin) at 1 uM by ELISA.
The target of experiment [3] is Receptor tyrosine-protein kinase erbB-4 (Homo sapiens) (UniProt Q15303). The experiment can be described thus: Inhibition of ErbB4 (unknown origin) at 1 uM by ELISA.

Each structure is given as a SMILES string. Calls of active or inactive are those of the source. No cut-off for these calls is given here.

By IC50 is commonly meant the concentration at which inhibition is half-maximal. What is called inhibition is how much of the control response was suppressed.

Chain of Receptor tyrosine-protein kinase erbB-4 (Homo sapiens) (Q15303 whole entry): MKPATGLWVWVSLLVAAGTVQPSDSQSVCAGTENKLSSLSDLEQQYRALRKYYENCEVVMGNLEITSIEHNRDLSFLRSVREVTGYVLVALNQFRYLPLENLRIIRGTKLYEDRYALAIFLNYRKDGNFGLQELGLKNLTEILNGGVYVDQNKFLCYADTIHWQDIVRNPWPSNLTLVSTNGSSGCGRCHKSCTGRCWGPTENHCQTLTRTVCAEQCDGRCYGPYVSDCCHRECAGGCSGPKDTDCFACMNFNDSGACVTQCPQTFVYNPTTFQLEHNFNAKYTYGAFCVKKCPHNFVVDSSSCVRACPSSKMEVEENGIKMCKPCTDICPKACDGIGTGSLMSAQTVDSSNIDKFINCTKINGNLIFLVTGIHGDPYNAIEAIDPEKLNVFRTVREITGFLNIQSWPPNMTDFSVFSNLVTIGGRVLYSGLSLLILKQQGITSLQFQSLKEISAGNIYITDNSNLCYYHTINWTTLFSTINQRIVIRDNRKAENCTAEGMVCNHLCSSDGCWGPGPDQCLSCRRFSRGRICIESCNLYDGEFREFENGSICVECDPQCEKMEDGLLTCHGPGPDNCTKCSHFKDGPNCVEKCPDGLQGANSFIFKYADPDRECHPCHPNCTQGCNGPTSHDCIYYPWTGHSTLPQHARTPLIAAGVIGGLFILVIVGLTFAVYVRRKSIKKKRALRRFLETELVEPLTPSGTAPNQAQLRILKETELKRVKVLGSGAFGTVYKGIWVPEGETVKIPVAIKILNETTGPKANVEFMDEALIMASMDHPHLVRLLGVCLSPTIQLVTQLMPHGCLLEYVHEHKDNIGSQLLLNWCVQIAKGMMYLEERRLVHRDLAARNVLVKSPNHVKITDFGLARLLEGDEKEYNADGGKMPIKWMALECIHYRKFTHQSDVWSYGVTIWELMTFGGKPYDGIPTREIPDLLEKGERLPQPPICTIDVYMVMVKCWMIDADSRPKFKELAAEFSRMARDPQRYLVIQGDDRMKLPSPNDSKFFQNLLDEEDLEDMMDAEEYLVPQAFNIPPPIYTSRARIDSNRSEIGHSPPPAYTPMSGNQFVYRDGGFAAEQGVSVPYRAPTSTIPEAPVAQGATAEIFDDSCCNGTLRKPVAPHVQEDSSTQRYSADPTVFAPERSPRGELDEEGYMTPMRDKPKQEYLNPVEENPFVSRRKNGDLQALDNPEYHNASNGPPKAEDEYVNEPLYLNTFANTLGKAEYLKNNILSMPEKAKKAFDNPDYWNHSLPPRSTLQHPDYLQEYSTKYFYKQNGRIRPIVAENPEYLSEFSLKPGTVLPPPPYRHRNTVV
Chain of Platelet-derived growth factor receptor beta (Homo sapiens) (P09619 whole entry): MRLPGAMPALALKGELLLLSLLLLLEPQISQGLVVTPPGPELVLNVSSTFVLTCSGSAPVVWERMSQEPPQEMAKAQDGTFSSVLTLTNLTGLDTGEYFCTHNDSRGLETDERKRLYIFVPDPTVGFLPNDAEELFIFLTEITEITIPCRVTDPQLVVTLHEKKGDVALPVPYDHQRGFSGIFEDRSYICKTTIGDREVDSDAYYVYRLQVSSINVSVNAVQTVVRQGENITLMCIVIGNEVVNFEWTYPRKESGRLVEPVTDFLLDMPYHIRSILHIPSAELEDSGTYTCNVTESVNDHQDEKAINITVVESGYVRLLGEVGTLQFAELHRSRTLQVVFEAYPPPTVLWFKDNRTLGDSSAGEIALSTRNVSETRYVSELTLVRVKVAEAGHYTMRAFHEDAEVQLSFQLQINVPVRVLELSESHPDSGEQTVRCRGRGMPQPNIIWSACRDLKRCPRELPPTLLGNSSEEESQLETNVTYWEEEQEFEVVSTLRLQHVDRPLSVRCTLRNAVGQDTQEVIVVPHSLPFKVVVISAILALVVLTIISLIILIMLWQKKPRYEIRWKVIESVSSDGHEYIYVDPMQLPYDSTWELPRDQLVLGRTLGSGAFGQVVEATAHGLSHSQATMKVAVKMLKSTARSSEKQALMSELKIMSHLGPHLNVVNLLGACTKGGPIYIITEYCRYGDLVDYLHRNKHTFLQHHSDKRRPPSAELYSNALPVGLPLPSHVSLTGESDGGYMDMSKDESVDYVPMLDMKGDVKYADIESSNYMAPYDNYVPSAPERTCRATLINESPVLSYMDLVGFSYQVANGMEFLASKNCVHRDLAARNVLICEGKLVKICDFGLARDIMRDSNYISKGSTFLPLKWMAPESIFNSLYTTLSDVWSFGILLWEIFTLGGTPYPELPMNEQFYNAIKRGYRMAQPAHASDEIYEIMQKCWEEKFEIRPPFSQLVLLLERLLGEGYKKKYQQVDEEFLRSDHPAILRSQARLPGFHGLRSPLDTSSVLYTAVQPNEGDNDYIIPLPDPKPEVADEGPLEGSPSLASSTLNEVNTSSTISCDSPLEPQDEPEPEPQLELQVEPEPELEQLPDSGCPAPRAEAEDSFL

In experiment [1], `COc1cccc2c1C(=O)c1c(O)c3c(c(O)c1C2=O)C[C@@](O)(C(=O)CO)C[C@@H]3O[C@H]1C[C@H](N)[C@H](O)[C@H](C)O1` [DOXORUBICIN] gave an IC50 of 0.2 µM.
The molecule `CC[C@@H](C)/C=C/CCCC/C=C/C=C/C=C/C(=O)N[C@@H]1CO[C@@]2(O)C=C[C@@H](Cl)[C@H](O)[C@@]2(O)C1` yielded an IC50 in experiment [1] of 2.8 µM. Moreover, in the experiment filed under Homo sapiens, the inhibition result is “Active”. Further, the inhibition in experiment [2] turned out to be 50%; in experiment [3] it was 40%.
